The Kinase Knowledgebase extract (Sharma et al. 2016)

Legend:
[1] = molecular target: PIK3CA (human) (UniProt P42336); test: Inhibition of PIK3CA Kinase Activity
[2] = molecular target: PIK3CB (Human) (UniProt P42338); test: Inhibition of PIK3CB Kinase Activity
[3] = molecular target: PIK3CD (Human) (UniProt O00329); test: Inhibition of PIK3CD Kinase Activity
[4] = molecular target: PIK3CG (human) (UniProt P48736); test: Inhibition of PIK3CG Kinase Activity

Measured: IC50

PIK3CG (human), sequence (P48736 whole entry, looked up): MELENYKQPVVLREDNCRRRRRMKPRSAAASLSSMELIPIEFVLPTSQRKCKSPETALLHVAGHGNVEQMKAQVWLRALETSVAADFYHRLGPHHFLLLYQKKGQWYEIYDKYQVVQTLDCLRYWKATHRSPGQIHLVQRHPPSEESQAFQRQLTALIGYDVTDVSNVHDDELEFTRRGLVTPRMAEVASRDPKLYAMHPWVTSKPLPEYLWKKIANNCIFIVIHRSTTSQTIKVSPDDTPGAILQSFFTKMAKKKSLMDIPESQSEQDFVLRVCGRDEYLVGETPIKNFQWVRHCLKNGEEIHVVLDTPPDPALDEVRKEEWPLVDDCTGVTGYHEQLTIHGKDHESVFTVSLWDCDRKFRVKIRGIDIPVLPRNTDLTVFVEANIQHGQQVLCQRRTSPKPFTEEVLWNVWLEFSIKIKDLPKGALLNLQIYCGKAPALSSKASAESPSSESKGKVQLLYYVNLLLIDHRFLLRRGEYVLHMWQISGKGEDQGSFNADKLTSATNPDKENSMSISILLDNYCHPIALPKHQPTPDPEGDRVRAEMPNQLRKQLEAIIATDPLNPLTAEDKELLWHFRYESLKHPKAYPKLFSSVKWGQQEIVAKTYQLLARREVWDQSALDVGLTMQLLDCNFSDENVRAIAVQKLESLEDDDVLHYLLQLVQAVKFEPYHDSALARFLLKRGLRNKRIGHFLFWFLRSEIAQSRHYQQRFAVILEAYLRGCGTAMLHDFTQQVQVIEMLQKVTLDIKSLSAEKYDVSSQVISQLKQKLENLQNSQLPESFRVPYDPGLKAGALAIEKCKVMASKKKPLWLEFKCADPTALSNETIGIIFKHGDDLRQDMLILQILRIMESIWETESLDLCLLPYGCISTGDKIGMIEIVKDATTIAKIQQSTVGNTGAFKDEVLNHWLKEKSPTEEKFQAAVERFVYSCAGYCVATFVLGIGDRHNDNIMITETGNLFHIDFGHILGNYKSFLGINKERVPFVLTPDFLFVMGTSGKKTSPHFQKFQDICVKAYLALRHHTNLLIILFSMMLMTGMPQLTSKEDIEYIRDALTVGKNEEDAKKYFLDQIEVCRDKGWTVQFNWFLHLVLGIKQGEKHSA
PIK3CD (Human), sequence (O00329 whole entry, looked up): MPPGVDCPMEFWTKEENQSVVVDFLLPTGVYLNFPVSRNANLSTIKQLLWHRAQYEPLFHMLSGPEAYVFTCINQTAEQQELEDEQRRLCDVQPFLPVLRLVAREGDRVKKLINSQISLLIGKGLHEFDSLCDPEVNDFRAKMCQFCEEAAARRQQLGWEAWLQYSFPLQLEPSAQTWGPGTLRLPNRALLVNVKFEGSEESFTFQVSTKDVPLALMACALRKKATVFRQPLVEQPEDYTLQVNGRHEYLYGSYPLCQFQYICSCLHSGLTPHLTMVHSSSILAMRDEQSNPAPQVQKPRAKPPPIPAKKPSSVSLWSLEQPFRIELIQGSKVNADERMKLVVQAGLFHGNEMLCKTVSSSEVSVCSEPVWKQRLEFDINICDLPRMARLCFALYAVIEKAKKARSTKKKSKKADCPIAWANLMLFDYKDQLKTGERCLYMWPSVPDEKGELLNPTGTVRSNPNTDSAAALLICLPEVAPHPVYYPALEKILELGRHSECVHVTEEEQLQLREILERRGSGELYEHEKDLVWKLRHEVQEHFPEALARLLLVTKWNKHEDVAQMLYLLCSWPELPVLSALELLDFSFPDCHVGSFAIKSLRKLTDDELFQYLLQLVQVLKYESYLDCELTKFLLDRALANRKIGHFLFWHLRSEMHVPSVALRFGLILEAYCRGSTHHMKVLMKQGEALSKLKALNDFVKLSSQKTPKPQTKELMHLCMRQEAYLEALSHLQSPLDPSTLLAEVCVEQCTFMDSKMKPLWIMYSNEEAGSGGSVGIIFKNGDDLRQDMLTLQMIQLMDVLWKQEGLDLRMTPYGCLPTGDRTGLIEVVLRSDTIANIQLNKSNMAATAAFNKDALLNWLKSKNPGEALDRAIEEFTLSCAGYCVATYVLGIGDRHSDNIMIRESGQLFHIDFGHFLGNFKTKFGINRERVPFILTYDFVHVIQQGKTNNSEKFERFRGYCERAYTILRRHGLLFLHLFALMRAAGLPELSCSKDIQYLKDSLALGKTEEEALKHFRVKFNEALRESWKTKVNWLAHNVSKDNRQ
PIK3CA (human), sequence (P42336 whole entry, looked up): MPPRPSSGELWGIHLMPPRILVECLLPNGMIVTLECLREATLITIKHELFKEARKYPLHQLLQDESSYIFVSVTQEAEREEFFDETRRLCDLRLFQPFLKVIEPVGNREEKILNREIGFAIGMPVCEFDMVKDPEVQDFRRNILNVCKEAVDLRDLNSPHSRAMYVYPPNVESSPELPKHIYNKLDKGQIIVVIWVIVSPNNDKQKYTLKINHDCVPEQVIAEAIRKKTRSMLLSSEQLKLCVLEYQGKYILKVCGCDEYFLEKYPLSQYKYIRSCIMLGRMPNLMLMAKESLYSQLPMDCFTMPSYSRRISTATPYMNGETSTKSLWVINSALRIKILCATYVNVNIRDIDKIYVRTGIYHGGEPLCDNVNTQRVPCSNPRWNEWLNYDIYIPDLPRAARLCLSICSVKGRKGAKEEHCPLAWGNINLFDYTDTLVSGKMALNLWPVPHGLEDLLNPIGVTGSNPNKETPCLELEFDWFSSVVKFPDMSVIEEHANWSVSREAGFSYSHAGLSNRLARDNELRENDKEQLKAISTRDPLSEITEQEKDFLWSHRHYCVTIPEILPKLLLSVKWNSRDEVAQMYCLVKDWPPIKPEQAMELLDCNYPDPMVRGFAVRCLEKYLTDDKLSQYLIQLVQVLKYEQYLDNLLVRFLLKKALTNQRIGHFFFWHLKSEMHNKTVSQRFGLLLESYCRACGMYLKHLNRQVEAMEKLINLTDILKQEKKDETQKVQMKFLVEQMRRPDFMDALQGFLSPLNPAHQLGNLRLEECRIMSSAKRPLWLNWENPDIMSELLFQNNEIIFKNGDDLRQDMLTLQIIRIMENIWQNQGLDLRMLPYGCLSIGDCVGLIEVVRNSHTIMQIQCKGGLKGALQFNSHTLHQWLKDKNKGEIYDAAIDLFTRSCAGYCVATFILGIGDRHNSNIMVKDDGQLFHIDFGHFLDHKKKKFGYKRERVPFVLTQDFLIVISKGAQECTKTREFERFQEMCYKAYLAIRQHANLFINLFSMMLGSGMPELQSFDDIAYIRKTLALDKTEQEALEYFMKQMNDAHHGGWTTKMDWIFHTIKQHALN
PIK3CB (Human), sequence (P42338 whole entry, looked up): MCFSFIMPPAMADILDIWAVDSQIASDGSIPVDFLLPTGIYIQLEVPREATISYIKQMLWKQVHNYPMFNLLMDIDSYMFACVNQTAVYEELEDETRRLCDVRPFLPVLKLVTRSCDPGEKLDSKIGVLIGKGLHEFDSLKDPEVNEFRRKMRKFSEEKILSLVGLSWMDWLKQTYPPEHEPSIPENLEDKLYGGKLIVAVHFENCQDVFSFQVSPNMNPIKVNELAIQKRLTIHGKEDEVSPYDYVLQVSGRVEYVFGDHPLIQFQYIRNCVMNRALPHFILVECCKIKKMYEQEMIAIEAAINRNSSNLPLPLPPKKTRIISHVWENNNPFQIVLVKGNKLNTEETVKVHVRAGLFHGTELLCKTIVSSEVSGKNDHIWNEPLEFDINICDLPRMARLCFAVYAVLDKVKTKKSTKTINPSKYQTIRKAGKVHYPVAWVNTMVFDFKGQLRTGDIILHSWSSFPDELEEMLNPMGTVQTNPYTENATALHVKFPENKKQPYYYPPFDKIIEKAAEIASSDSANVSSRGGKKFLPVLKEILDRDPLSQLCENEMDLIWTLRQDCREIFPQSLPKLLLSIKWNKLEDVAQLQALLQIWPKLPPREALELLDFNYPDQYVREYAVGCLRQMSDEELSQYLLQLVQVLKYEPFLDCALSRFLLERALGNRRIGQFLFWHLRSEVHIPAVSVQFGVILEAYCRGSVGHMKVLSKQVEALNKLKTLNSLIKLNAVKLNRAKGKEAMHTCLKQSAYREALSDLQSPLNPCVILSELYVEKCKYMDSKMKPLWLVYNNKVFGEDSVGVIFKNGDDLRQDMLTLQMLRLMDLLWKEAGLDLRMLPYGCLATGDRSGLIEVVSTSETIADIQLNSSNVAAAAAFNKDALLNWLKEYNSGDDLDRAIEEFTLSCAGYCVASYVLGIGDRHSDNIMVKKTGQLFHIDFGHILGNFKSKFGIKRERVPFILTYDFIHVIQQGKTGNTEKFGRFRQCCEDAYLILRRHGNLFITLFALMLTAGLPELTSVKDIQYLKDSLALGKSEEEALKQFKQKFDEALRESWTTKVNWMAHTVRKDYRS

CC1(C)CC(=O)c2sc(N3CCOCC3Cc3ccc(N4CCOCC4)cc3)nc2C1 (stereo unspecified)
≤ 50 µM: all assays above

CC1(C)CC(=O)c2sc(N3CCOC[C@@H]3Cc3cccc(-c4ccc(Cl)c(Cl)c4)c3)nc2C1
≤ 50 µM: all assays above

CC1(C)CC(=O)c2sc(N3CCOC(CNS(=O)(=O)c4ccccc4)C3)nc2C1 (stereo unspecified)
≤ 50 µM: all assays above

O=C1CCCc2nc(N3CCOCC3Cc3cc4ccccc4s3)sc21 (stereo unspecified)
≤ 50 µM: all assays above

CC1(C)CC(=O)c2sc(N3CCOC(CC(=O)NCc4csc5ccccc45)C3)nc2C1 (stereo unspecified)
≤ 50 µM: all assays above

CC1(C)CC(=O)c2sc(N3CCOC[C@@H]3Cc3cccc(Br)c3)nc2C1
≤ 50 µM: all assays above

CSc1ccc(C2CC(=O)c3sc(N4CCOCC4)nc3C2)cc1 (stereo unspecified)
≤ 50 µM: all assays above

CC1(C)CC(=O)c2sc(N3CCOC[C@@H]3Cc3cccc(-c4cccc(NS(C)(=O)=O)c4)c3)nc2C1
≤ 50 µM: all assays above

CC1(C)CC(=O)c2sc(N3CCOC[C@@H]3Cc3cccc(-c4cccc(CO)c4)c3)nc2C1
≤ 50 µM: all assays above

CC1(C)CC(=O)c2sc(N3CCOC[C@@H]3Cc3cccc(-c4cccc(F)c4)c3)nc2C1
≤ 50 µM: all assays above

CC1(C)CC(=O)c2sc(N3CCOC(CN)C3)nc2C1 (stereo unspecified)
≤ 50 µM: all assays above

CC1(C)CC(=O)c2sc(N3CCOC[C@@H]3Cc3cccc(-c4cc(C(F)(F)F)cc(C(F)(F)F)c4)c3)nc2C1
≤ 50 µM: all assays above

CC1(C)CNC(=O)c2sc(N3CCOC[C@@H]3Cc3cccc(Br)c3)nc2C1
≤ 50 µM: all assays above

ON=C1CCCc2nc(N3CCOCC3)sc21
≤ 50 µM: all assays above

CC1(C)CC(=O)c2sc(N3CCOC[C@@H]3Cc3cccc(-c4ccc5c(c4)OCO5)c3)nc2C1
≤ 50 µM: all assays above

O=C1NCCCc2nc(N3CCOCC3)sc21
≤ 50 µM: all assays above

CC1(C)CC(=O)c2sc(N3CCOC[C@@H]3Cc3c[nH]c4ccc(OCc5ccccc5)cc34)nc2C1
≤ 50 µM: all assays above

CC1(C)CC(=O)c2sc(N3CCOC[C@@H]3Cc3c[nH]c4ccccc34)nc2C1
≤ 50 µM: all assays above

CC1(C)CNC(=O)c2sc(N3CCOCC3Cc3c[nH]c4ncccc34)nc2C1 (stereo unspecified)
≤ 50 µM: all assays above

CC1CCc2nc(N3CCOCC3)sc2C(=O)N1 (stereo unspecified)
≤ 50 µM: all assays above

CC1(C)CC(=O)c2sc(N3CCOC[C@@H]3Cc3cccc(-c4cc(F)cc(F)c4)c3)nc2C1
≤ 50 µM: all assays above

CC1(C)CC(=O)c2sc(N3CCOC[C@@H]3Cc3cccc(-c4ccncc4)c3)nc2C1
≤ 50 µM: all assays above

CC1(C)CC(=O)c2sc(N3CCOC[C@@H]3Cc3cccc(-c4ccccc4CO)c3)nc2C1
≤ 50 µM: all assays above

O=C1CC(c2ccccc2)Cc2nc(N3CCOCC3)sc21 (stereo unspecified)
≤ 50 µM: all assays above

COc1ccc(-c2cccc(C[C@H]3COCCN3c3nc4c(s3)C(=O)CC(C)(C)C4)c2)cc1OC
≤ 50 µM: all assays above

CC1(C)CC(=O)c2sc(N3CCOCC3COc3ccccc3)nc2C1 (stereo unspecified)
≤ 50 µM: all assays above

CC1(C)CC(=O)c2sc(N3CCOCC3CCc3ccccc3)nc2C1 (stereo unspecified)
≤ 50 µM: all assays above

Cn1cc(CC2COCCN2c2nc3c(s2)C(=O)CC(C)(C)C3)c2ccccc21 (stereo unspecified)
≤ 50 µM: all assays above

CC(=O)n1cc(C[C@H]2COCCN2c2nc3c(s2)C(=O)CC(C)(C)C3)c2ccccc21
≤ 50 µM: all assays above

Cc1cc(-c2cccc(C[C@H]3COCCN3c3nc4c(s3)C(=O)CC(C)(C)C4)c2)ccc1F
≤ 50 µM: all assays above

CC1(C)CC(=O)c2sc(N3CCOC[C@@H]3Cc3cccc(-c4ccc(C#N)cc4)c3)nc2C1
≤ 50 µM: all assays above

CC1(C)CNC(=O)c2sc(N3CCOCC3Cc3cccc4ncccc34)nc2C1 (stereo unspecified)
≤ 50 µM: all assays above

CC1(C)CC(=O)c2sc(N3CCOC[C@@H]3Cc3cccc(-c4ccc5ccccc5c4)c3)nc2C1
≤ 50 µM: all assays above

CC1(C)CC(=O)c2sc(N3CCOc4ccccc43)nc2C1
≤ 50 µM: all assays above

CC1(C)CNC(=O)c2sc(N3CCOC[C@@H]3Cc3cccc(-c4ccccc4)c3)nc2C1
≤ 50 µM: all assays above

CCOc1cccc(-c2cccc(C[C@H]3COCCN3c3nc4c(s3)C(=O)CC(C)(C)C4)c2)c1
≤ 50 µM: all assays above

CC1CC(=O)c2sc(N3CCOCC3)nc2C1 (stereo unspecified)
≤ 50 µM: all assays above

CC1(C)CC(=O)c2sc(N3CCOC[C@@H]3Cc3cccc(-c4cccc(N)c4)c3)nc2C1
≤ 50 µM: all assays above

CC1(C)CC(=O)c2sc(N3CCOC[C@H]3Cc3c[nH]c4ccccc34)nc2C1
≤ 50 µM: all assays above

CC1(C)CC(=NN)c2sc(N3CCOCC3)nc2C1
≤ 50 µM: all assays above

CC1(C)CC(=O)c2sc(N3CCOC(CNC(=O)c4cc5ccccc5o4)C3)nc2C1 (stereo unspecified)
≤ 50 µM: all assays above

CC1(C)CC(=NO)c2sc(N3CCOCC3)nc2C1
≤ 50 µM: all assays above

CC1(C)CC(=O)c2sc(N3CCOC[C@@H]3Cc3cccc(-c4ccccc4Br)c3)nc2C1
≤ 50 µM: all assays above

CC1(C)CC(=O)c2sc(nc2C1)N3CCOCC3C(=O)N4=CCCc5ccccc45
≤ 50 µM: all assays above
